Reference: ChEMBL document CHEMBL1122706, “2,5-Anhydro-1-deoxy-1-phosphono-D-altritol, an isosteric analogue of alpha-D-ribofuranose 1-phosphate” (J Med Chem, 1984)
Active and inactive are the calls of the source. The rule behind the calls is not given here.

Tests used:
[1] = target: T1, Purine nucleoside phosphorylase (Homo sapiens) (UniProt P00491); test: Inhibitory activity against purine nucleoside phosphorylase at a concentration of 6 mM; NA = No activity
T1 sequence (whole entry): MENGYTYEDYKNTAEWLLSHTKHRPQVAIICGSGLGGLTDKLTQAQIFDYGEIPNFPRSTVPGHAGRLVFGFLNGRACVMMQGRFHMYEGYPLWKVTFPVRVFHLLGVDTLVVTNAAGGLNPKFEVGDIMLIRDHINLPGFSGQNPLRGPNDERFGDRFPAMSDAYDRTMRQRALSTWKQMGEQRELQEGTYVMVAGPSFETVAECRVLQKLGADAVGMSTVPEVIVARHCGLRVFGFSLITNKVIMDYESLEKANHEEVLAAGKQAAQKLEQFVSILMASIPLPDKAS

[2] = Inhibitory activity against uridine phosphorylase at a concentration of 4 mM by using 5-fluorouracil and ribose 1-phosphate as substrates; NI = No inhibition

| Structure (SMILES) | inhibition [1] | inhibition [2] |
| --- | --- | --- |
| O=P(O)(O)C[C@@H]1O[C@H](CO)[C@@H](O)[C@H]1O | inactive |  |
| O=P(O)(O)C[C@H]1O[C@H](CO)[C@@H](O)[C@H]1O | inactive | inactive |
